From ChEMBL document CHEMBL1145887, “Large dimeric ligands with favorable pharmacokinetic properties and peroxisome proliferator-activated receptor agonist activity in vitro and in vivo” (J Med Chem, 2003)
pEC50: −log10 of the molar value.

What was measured:
Mus musculus [1] = assay: In vivo insulin effect in db/db mice after oral treatment; assay type: functional
[2] = molecular target: T1, Peroxisome proliferator-activated receptor alpha (Rattus norvegicus, UniProt P37230); assay: (§1) In vitro transactivation of rat Peroxisome proliferator activated receptor alpha
T1 sequence (P37230 whole entry): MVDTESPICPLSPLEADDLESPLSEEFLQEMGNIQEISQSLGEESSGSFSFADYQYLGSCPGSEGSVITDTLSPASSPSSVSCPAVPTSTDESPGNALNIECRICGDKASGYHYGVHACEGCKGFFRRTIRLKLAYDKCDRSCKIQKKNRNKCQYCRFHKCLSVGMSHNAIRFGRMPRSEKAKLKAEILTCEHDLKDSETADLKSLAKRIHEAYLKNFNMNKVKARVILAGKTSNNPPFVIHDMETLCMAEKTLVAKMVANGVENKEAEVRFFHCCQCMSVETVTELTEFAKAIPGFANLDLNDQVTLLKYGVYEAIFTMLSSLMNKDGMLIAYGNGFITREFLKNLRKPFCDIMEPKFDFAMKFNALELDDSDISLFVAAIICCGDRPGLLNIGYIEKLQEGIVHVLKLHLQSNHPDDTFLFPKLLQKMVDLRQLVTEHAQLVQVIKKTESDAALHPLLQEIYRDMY

[3] = molecular target: T2, Peroxisome proliferator-activated receptor alpha (Rattus norvegicus) (UniProt P37230); assay: as §1; set-up: concentration or dose not given beside the values
T2 sequence (whole entry): T1 sequence (P37230 whole entry)

Mus musculus [4] = assay: In vivo nonfasting triglyceride in db/db mice after oral treatment; assay type: functional
Mus musculus [5] = species: Mus musculus; assay: Area under blood glucose time curve after oral glucose test in mice; assay type: functional
[6] = Partition coefficient (logP); assay type: physicochemical; conditions: octanol/water
[7] = molecular target: T3, Peroxisome proliferator-activated receptor alpha (Homo sapiens, UniProt Q07869); assay: (§2) In vitro transactivation of human Peroxisome proliferator activated receptor alpha (hPPARalpha)
T3 sequence (Q07869 whole entry): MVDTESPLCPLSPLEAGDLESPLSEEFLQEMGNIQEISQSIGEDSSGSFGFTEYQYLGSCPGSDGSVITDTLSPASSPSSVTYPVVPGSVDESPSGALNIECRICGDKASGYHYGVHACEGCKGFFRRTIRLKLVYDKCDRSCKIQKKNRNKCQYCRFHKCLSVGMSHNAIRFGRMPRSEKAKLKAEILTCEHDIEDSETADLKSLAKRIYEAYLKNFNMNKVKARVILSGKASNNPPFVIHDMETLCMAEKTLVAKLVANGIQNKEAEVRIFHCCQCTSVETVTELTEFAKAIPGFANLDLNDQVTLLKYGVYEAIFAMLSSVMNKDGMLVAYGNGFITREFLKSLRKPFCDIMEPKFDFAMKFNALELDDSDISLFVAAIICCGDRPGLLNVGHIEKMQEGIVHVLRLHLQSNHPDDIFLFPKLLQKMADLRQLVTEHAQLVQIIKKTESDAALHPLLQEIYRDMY

Mus musculus [8] = assay: In vivo nonfasting blood glucose in db/db mice after oral treatment; assay type: functional
[9] = molecular target: T4, Peroxisome proliferator-activated receptor alpha (Homo sapiens) (UniProt Q07869); assay: as §2; set-up: concentration or dose not given beside the values
T4 sequence (whole entry): T3 sequence (Q07869 whole entry)

[10] = Area under the plasma concentration-time curve in rat after peroral administration; assay type: ADME, organism-based; conditions: po
[11] = Oral bioavailability in rat; assay type: ADME, organism-based; conditions: in vivo
[12] = Oral half-life in rat after peroral administration; assay type: ADME, organism-based; conditions: in vivo
[13] = Clearance in rat; assay type: ADME, organism-based; conditions: in vivo
[14] = Volume of distribution during steady state in rat; conditions: in vivo
[15] = molecular target: T5, Peroxisome proliferator-activated receptor gamma (Homo sapiens, UniProt P37231)
T5 sequence (P37231 whole entry): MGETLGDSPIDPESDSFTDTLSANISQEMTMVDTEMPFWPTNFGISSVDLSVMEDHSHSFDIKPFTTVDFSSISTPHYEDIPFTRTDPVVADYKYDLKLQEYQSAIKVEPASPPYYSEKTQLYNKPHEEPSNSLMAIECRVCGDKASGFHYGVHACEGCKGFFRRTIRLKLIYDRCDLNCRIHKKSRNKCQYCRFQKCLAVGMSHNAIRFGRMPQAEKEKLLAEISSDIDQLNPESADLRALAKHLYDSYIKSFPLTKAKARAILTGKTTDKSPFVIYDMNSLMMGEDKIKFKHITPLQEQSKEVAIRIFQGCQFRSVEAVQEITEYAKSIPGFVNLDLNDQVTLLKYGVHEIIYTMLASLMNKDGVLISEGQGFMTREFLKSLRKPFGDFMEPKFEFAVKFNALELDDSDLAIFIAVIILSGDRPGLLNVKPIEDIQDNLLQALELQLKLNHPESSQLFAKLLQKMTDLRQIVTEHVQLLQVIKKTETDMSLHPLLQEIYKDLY
Description: In vitro transactivation of human Peroxisome proliferator activated receptor gamma

[16] = molecular target: T6, Peroxisome proliferator-activated receptor delta (Homo sapiens, UniProt Q03181); assay: In vitro transactivation of human Peroxisome proliferator activated receptor delta (hPPARdelta)
T6 sequence (Q03181 whole entry): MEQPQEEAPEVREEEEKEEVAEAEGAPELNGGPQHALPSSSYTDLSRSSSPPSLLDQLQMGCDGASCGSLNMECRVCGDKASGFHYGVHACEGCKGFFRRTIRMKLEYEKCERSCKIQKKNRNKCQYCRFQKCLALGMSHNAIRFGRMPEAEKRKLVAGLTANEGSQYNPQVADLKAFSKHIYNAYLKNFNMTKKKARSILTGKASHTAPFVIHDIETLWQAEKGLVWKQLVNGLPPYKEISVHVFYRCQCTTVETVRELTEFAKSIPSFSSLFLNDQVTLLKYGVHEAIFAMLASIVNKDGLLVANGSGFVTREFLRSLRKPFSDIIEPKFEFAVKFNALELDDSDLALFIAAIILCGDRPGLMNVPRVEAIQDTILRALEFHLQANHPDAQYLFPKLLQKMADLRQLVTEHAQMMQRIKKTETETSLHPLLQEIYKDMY

[17] = Maximum plasma concentration in rat after peroral administration; assay type: ADME, organism-based; set-up: route oral; conditions: po

| SMILES | pEC50 [2] | Fold activation [3] | logP [6] | pEC50 [7] | Fold activation [9] | AUC [10] | bioavailability [11] | half-life [12] | clearance [13] | Vd [14] | pEC50 [15] | pEC50 [16] | ED50 (Mus musculus [1]) | Max reduction (Mus musculus [1]) | ED50 (Mus musculus [4]) | Max reduction (Mus musculus [4]) | Max reduction (Mus musculus [5]) | ED50 (Mus musculus [5]; Mus musculus, Blood, po) | ED50 (Mus musculus [8]) | Max reduction (Mus musculus [8]) | other results |
| --- | --- | --- | --- | --- | --- | --- | --- | --- | --- | --- | --- | --- | --- | --- | --- | --- | --- | --- | --- | --- | --- |
| CC(C)(Oc1ccc(C(=O)c2ccc(Cl)cc2)cc1)C(=O)O [FENOFIBRIC ACID] | 3.88 | 331% | 4.27 | 4.49 | 265% | – | – | – | – | – | – | – | 191 mg/kg | 32% | > 300 mg/kg | 20% | 0% | > 300 mg/kg | > 300 mg/kg | 10% | – |
| Cc1cccc(Nc2cc(Cl)nc(SCC(=O)O)n2)c1C [PIRINIXIC ACID] | 5.68 | – | – | – | – | – | – | – | – | – | – | – | 15 mg/kg | 45% | 3 mg/kg | 32% | 13% | – | 2.2 mg/kg | 36% | ED50 (Mus musculus [5]): 4.7 mg/kg |
| CN(CCOc1ccc(CC2SC(=O)NC2=O)cc1)c1ccccn1 (stereo not drawn) [ROSIGLITAZONE] | – | – | 1.91 | – | – | 14600 ng·h/mL | 83% | 3.03 h | 2.1 mL/min/kg | – | – | – | 0.1 mg/kg | 43% | 0.1 mg/kg | 58% | 16% | 0.8 mg/kg | 0.9 mg/kg | 35% | – |
| CCO[C@@H](Cc1ccc(OC/C=C(\C)c2ccc(-c3ccccc3)cc2)cc1)C(=O)O | 4.95 | 166% | 4.5 | 6.31 | 158% | 116000 ng·h/mL | 100% | 3.55 h | 0.49 mL/min/kg | 0.16 L/kg | 5.69 | 5.02 | 0.2 mg/kg | 95% | 0.3 mg/kg | 65% | 50% | 0.3 mg/kg | 0.2 mg/kg | 53% | Cmax [17]: 9250 ng/mL |
| CCO[C@@H](Cc1ccc(OC/C=C/C#Cc2ccccc2)cc1)C(=O)O | 6.15 | 112% | 3.87 | 7.17 | 123% | 62200 ng·h/mL | 89% | 2.03 h | 0.54 mL/min/kg | 0.14 L/kg | 5.95 | 5.16 | 1 mg/kg | 92% | 0.4 mg/kg | 57% | 45% | 1.2 mg/kg | 0.4 mg/kg | 54% | Cmax [17]: 4570 ng/mL |
| CCCCC[C@H](O)/C=C/[C@@H]1[C@H]2C/C(=C\CCCC(=O)O)C[C@H]2C[C@H]1O [CARBACYCLIN] | – | 15% | – | 6.02 | 79% | – | – | – | – | – | 5.10 | 5.73 | – | – | – | – | – | – | – | – | – |
| CCc1ccc(CCOc2ccc(CC3SC(=O)NC3=O)cc2)nc1 (stereo not drawn) [PIOGLITAZONE] | – | – | – | – | – | – | – | – | – | – | – | – | 15 mg/kg | 54% | 27 mg/kg | 21% | 39% | 12 mg/kg | 2.6 mg/kg | 53% | – |

Second part, led by results:

| pEC50 [2] | Fold activation [3] | logP [6] | pEC50 [7] | Fold activation [9] | AUC [10] | bioavailability [11] | half-life [12] | clearance [13] | Vd [14] | pEC50 [15] | pEC50 [16] | SMILES | ED50 (Mus musculus [1]) | Max reduction (Mus musculus [1]) | ED50 (Mus musculus [4]) | Max reduction (Mus musculus [4]) | Max reduction (Mus musculus [5]) | ED50 (Mus musculus [5]; Mus musculus, Blood, po) | ED50 (Mus musculus [8]) | Max reduction (Mus musculus [8]) | other results |
| --- | --- | --- | --- | --- | --- | --- | --- | --- | --- | --- | --- | --- | --- | --- | --- | --- | --- | --- | --- | --- | --- |
| 5.34 | 109% | 4.81 | 6.52 | 193% | 84900 ng·h/mL | 63% | 6.7 h | 0.23 mL/min/kg | 0.16 L/kg | 5.78 | 4.98 | CCO[C@@H](Cc1ccc(OC/C=C/C#Cc2cccc(C#C/C=C/COc3ccc(C[C@H](OCC)C(=O)O)cc3)c2)cc1)C(=O)O | 0.6 mg/kg | 86% | 0.1 mg/kg | 46% | 60% | 0.5 mg/kg | 0.9 mg/kg | 54% | Cmax [17]: 7210 ng/mL |
| 5.20 | 210% | 4.81 | 6.15 | 173% | 111000 ng·h/mL | 100% | > 6 h | 0.1 mL/min/kg | 0.04 L/kg | 6.96 | 5.66 | CCO[C@@H](Cc1ccc(OC/C=C/C#Cc2ccc(C#C/C=C/COc3ccc(C[C@H](OCC)C(=O)O)cc3)cc2)cc1)C(=O)O | 0.4 mg/kg | 90% | 0.2 mg/kg | 56% | 52% | 0.9 mg/kg | 0.4 mg/kg | 55% | Cmax [17]: 27800 ng/mL |
| 4.70 | 203% | 4.89 | 5.17 | 247% | 9790 ng·h/mL | 58% | > 6.67 h | 0.04 mL/min/kg | 0.08 L/kg | 6.49 | 5.68 | CCO[C@@H](Cc1ccc(OC/C=C(\C)c2ccc(-c3ccc(/C(C)=C/COc4ccc(C[C@H](OCC)C(=O)O)cc4)cc3)cc2)cc1)C(=O)O | 0.2 mg/kg | 91% | 0.3 mg/kg | 60% | 53% | 0.4 mg/kg | 0.2 mg/kg | 40% | Cmax [17]: 23200 ng/mL |
